Test results: the CheMixHub ionic liquid set

Assay: xn = mol fraction of the nth substance listed

CCCCCCCCCCCCCC[P+](CCCC)(CCCC)CCCC.CCCCCCCCCCCCc1ccc(S(=O)(=O)[O-])cc1 + O
100 kPa
Conditions	viscosity [mPa·s]
323.15 K, x1 = 0.3453	116
353.15 K, x1 = 0.892	148

CCCCCCCCCCCCCC[P+](CCCCCC)(CCCCCC)CCCCCC.[Cl-] + O
100 kPa, x2 = 0.818
Conditions	viscosity [mPa·s]
318.15 K	50.65
323.15 K	41.05

CCCCCCC[n+]1ccn(C)c1.O=S(=O)([N-]S(=O)(=O)C(F)(F)F)C(F)(F)F + O
100 kPa, x2 = 0.1971
Conditions	viscosity [mPa·s]
308.15 K	34.86
318.15 K	24.33
323.15 K	20.69
358.15 K	8.4

CCCn1cc[n+](C)c1C.F[B-](F)(F)F + O
101 kPa
Conditions	viscosity [mPa·s]
298.15 K, x2 = 0.1932	134.9
303.15 K, x2 = 0.1932	103.3
303.15 K, x2 = 0.3944	40.4
303.15 K, x2 = 0.4987	25.5
308.15 K, x2 = 0.2833	53.2
308.15 K, x2 = 0.3944	32.95
308.15 K, x2 = 0.5995	13.58
318.15 K, x2 = 0.0939	78.6
318.15 K, x2 = 0.1932	52.1
333.15 K, x2 = 0.0939	42.5
333.15 K, x2 = 0.5995	6.65
333.15 K, x2 = 0.6985	4.37
343.15 K, x2 = 0.0939	29.96

Cn1cc[n+](CCO)c1.O=S(=O)([O-])C(F)(F)C(F)(F)C(F)(F)C(F)(F)F + O
101 kPa
Conditions	electrical conductivity [S/m]	viscosity [mPa·s]
298.15 K, x1 = 0.02322	4.64	2.48
298.15 K, x1 = 0.02741	4.83	2.81
298.15 K, x1 = 0.05114	–	5.32
298.15 K, x1 = 0.05966	–	6.3
298.15 K, x1 = 0.09831	4.54	11.5
298.15 K, x1 = 0.1816	2.58	27.4
298.15 K, x1 = 0.6778	0.116	256
308.15 K, x1 = 0.04384	–	3.39
308.15 K, x1 = 0.0644	–	5.13
308.15 K, x1 = 0.06999	–	5.73
308.15 K, x1 = 0.07565	–	6.11
308.15 K, x1 = 0.08994	–	7.61
308.15 K, x1 = 0.1303	–	11.95
308.15 K, x1 = 0.1442	–	13.84
308.15 K, x1 = 0.2068	–	21.6
308.15 K, x1 = 0.3955	–	53.9
318.15 K, x1 = 0.02322	–	1.601
318.15 K, x1 = 0.03214	–	2.096
318.15 K, x1 = 0.04384	–	2.67
318.15 K, x1 = 0.05966	–	3.7
318.15 K, x1 = 0.09831	–	6.23
318.15 K, x1 = 0.1303	–	8.76
318.15 K, x1 = 0.2329	–	17.91

C[n+]1ccn(CCCC#N)c1.O=S(=O)([O-])C(F)(F)F + O=C1CCCO1
100 kPa
Conditions	electrical conductivity [S/m]
288.15 K, x1 = 0.3003	0.53
288.15 K, x1 = 0.6002	0.186
288.15 K, x1 = 1	0.023
293.15 K, x1 = 0.9004	0.069
298.15 K, x1 = 0.9004	0.092
303.15 K, x1 = 0.4999	0.459
303.15 K, x1 = 0.8002	0.179
303.15 K, x1 = 0.9004	0.12
308.15 K, x1 = 0.6002	0.408
308.15 K, x1 = 1	0.083
313.15 K, x1 = 0.3003	1.08
313.15 K, x1 = 0.6002	0.476
313.15 K, x1 = 0.7001	0.372
318.15 K, x1 = 0.8002	0.323
318.15 K, x1 = 0.9004	0.234
318.15 K, x1 = 1	0.134
323.15 K, x1 = 0.3003	1.344
323.15 K, x1 = 0.8002	0.384
323.15 K, x1 = 0.9004	0.281
323.15 K, x1 = 1	0.167
333.15 K, x1 = 0.3999	1.323
338.15 K, x1 = 0.3003	1.79
338.15 K, x1 = 1	0.3
343.15 K, x1 = 0.7001	0.851

CCCC[P+](CC)(CC)CC.N#Cc1ccc[n-]1 + OCC(O)CO
100 kPa
Conditions	electrical conductivity, 293.15 K [S/m]	viscosity, 293.15 K [mPa·s]	viscosity, 298.15 K [mPa·s]	viscosity, 303.15 K [mPa·s]	viscosity, 313.15 K [mPa·s]
x1 = 0.002	0.0013	–	–	–	–
x1 = 0.004	0.0027	1395	880	562	226
x1 = 0.006	0.0041	–	–	–	–
x1 = 0.008	0.0055	–	–	–	–
x1 = 0.011	0.0073	–	–	–	–
x1 = 0.014	0.009	–	–	–	–
x1 = 0.018	0.0106	1500	950	599	234
x1 = 0.021	0.0118	–	–	–	–
x1 = 0.026	0.0135	–	–	–	–
x1 = 0.029	0.0143	–	–	–	–
x1 = 0.033	0.0151	–	–	–	–
x1 = 0.04	0.0162	1598	1015	648	256
x1 = 0.047	0.0175	–	–	–	–
x1 = 0.058	0.0181	1701	1080	690	282
x1 = 0.068	0.0188	–	–	–	–
x1 = 0.08	0.0186	1713	1086	690	277
x1 = 0.104	0.0187	1609	1023	655	268
x1 = 0.129	0.0185	1486	930	569	222
x1 = 0.187	0.018	1202	770	483	200
x1 = 0.259	0.0182	930	603	386	166
x1 = 0.34	0.0225	740	487	318	142
x1 = 0.442	0.0297	589	398	265	123
x1 = 0.577	0.0413	479	323	220	107
x1 = 0.743	0.0623	359	242	168	81
x1 = 0.85	0.0878	250	175	123	62
x1 = 1	0.147	187	137	104	62
